Experimental data published in ChEMBL document CHEMBL1158308, “Three new adjacent bis-tetrahydrofuran acetogenins with four hydroxyl groups from Asimina triloba” (J Nat Prod, 1996).
Converted amounts (≈) assume the structure as drawn.

Key:
A549 = test: Cytotoxicity against human A549 cells after 7 days by MTT assay; format: functional; conditions: for EC50: Homo sapiens, A549, 168 h, read-out: ED50 (the source's name)
MCF7 = test: Cytotoxicity against human MCF7 cells after 7 days by MTT assay; format: functional; conditions: for EC50: Homo sapiens, MCF7, 168 h, read-out: ED50 (the source's name)
Artemia salina = test: Toxicity to Artemia salina; format: organism-based; conditions: in vivo
MIA PaCa-2 = test: Cytotoxicity against human MIAPaCa2 cells after 7 days by MTT assay; format: functional; conditions: MIA PaCa-2, 168 h, read-out: ED50 (the source's name)
A498 = test: Cytotoxicity against human A498 cells after 7 days by MTT assay; format: functional; conditions: A498, 168 h, read-out: ED50 (the source's name)
HT-29 = test: Cytotoxicity against human HT29 cells after 7 days by MTT assay; format: functional; conditions: for EC50: Homo sapiens, HT-29, 168 h, read-out: ED50 (the source's name)
PC-3 = test: Cytotoxicity against human PC3 cells after 7 days by MTT assay; format: functional; conditions: PC-3, 168 h, read-out: ED50 (the source's name)

CCCCCCCCCC[C@@H](O)[C@H]1CC[C@H]([C@H]2CC[C@H]([C@H](O)CCCC[C@H](O)CCCCC[C@@H](O)CC3=C[C@H](C)OC3=O)O2)O1
EC50 (A549): 0.673 µg/mL (≈ 1.05 µM)
EC50 (MCF7): 0.327 µg/mL (≈ 0.512 µM)
LC50 (Artemia salina): 4.3 ×10⁻¹ ppm
EC50 (MIA PaCa-2): > 1 µg/mL
EC50 (A498): > 1 µg/mL
EC50 (HT-29): 0.00758 µg/mL (≈ 0.0119 µM)
EC50 (PC-3): 0.527 µg/mL (≈ 0.825 µM)

CCCCCCCCCC[C@@H](O)[C@H]1CC[C@@H]([C@H]2CC[C@H]([C@H](O)CCCC[C@H](O)CCCCC[C@@H](O)CC3=C[C@H](C)OC3=O)O2)O1
ED50 (A549): 1 ×10⁻⁸ ug/ml
ED50 (MCF7): 1.88 ×10⁻⁸ ug/ml
LC50 (Artemia salina): 2.6 ×10⁻¹ ppm
EC50 (MIA PaCa-2): 0.196 µg/mL (≈ 0.307 µM)
EC50 (A498): 0.01 µg/mL (≈ 0.0157 µM)
EC50 (HT-29): 1.39 µg/mL (≈ 2.18 µM)
EC50 (PC-3): 0.378 µg/mL (≈ 0.592 µM)

CCCCCCCCCCC(O)C1CCC(C2CCC(C(O)CCCCCCCC[C@H](O)CC3=C[C@@H](C)OC3=O)O2)O1 (stereo partly drawn) [ASIMICIN]
ED50 (A549): 8.43 ×10⁻⁴ ug/ml
EC50 (MCF7): 0.852 µg/mL (≈ 1.43 µM)
ED50 (HT-29): <1 ×10⁻¹² ug/ml

CCCCCCCCCC[C@@H](O)[C@H]1CC[C@H]([C@H]2CC[C@H]([C@H](O)CCCCCCCCCC[C@@H](O)CC3=C[C@H](C)OC3=O)O2)O1 [ASIMICIN]
LC50 (Artemia salina): 2.7 ×10⁻² ppm

CCCCCCCCCC[C@@H](O)[C@H]1CC[C@H]([C@H]2CC[C@H]([C@H](O)CCCC[C@H](O)CCCCCCCC3=C[C@H](C)OC3=O)O2)O1 [ASIMIN]
ED50 (A549): 7.99 ×10⁻⁹ ug/ml
ED50 (MCF7): 9.57 ×10⁻⁹ ug/ml
LC50 (Artemia salina): 4.6 ×10⁻³ ppm
ED50 (HT-29): <1 ×10⁻¹² ug/ml

CCCCCCCCCC[C@H](O)[C@H]1CC[C@H]([C@H]2CC[C@H]([C@H](O)CCCCCCCCCCCCC3=C[C@H](C)OC3=O)O2)O1 [BULLANIN]
ED50 (A549): 3.11 ×10⁻¹⁴ ug/ml
ED50 (MCF7): 3.22 ×10⁻¹⁴ ug/ml
LC50 (Artemia salina): 6 ×10⁻³ ppm
ED50 (HT-29): 4.77 ×10⁻¹⁴ ug/ml

CC[C@H](O)[C@H](O)CCCCCC[C@H](O)[C@H]1CC[C@H]([C@H]2CC[C@H]([C@H](O)CCCCCCCCCCCCC3=C[C@H](C)OC3=O)O2)O1 [BULLATETROCIN]
EC50 (A549): 0.352 µg/mL (≈ 0.551 µM)
EC50 (MCF7): 0.497 µg/mL (≈ 0.778 µM)
LC50 (Artemia salina): 3.1 ×10⁻¹ ppm
EC50 (MIA PaCa-2): > 1 µg/mL
EC50 (A498): > 1 µg/mL
ED50 (HT-29): 3.32 ×10⁻⁵ ug/ml
EC50 (PC-3): > 1 µg/mL

COc1cccc2c1C(=O)c1c(O)c3c(c(O)c1C2=O)C[C@@](O)(C(=O)CO)C[C@@H]3O[C@H]1C[C@H](N)[C@H](O)[C@H](C)O1 [DOXORUBICIN]
EC50 (A549): 0.00178 µg/mL (≈ 0.00327 µM)
EC50 (MCF7): 0.17 µg/mL (≈ 0.313 µM)
LC50 (Artemia salina): 8 ×10⁻² ppm
EC50 (MIA PaCa-2): 0.00243 µg/mL (≈ 0.00447 µM)
EC50 (A498): 0.00178 µg/mL (≈ 0.00327 µM)
EC50 (HT-29): 0.00428 µg/mL (≈ 0.00787 µM)
EC50 (PC-3): 0.0189 µg/mL (≈ 0.0348 µM)

CCCCCCCCCC[C@@H](O)[C@H]1CC[C@@H]([C@H]2CC[C@H]([C@H](O)CCCCCCCCCC[C@@H](O)CC3=C[C@H](C)OC3=O)O2)O1 [TRILOBACIN]
ED50 (A549): 8.02 ×10⁻⁴ ug/ml
EC50 (MCF7): 0.339 µg/mL (≈ 0.544 µM)
LC50 (Artemia salina): 8.7 ×10⁻³ ppm
ED50 (HT-29): <1 ×10⁻¹² ug/ml

CCCCCCCCCC[C@@H](O)[C@H]1CC[C@@H]([C@H]2CC[C@H]([C@H](O)CCC[C@H](O)CCCCCCCC3=C[C@H](C)OC3=O)O2)O1 [TRILOBIN]
ED50 (A549): 5.71 ×10⁻¹² ug/ml
ED50 (MCF7): 2.95 ×10⁻¹² ug/ml
LC50 (Artemia salina): 9.7 ×10⁻³ ppm
ED50 (HT-29): 2.2 ×10⁻⁸ ug/ml
